The values below come from paper doi:10.1101/2023.03.24.534094v2 (biorxiv, 2023).

The term IC50 denotes the midpoint of a concentration-inhibition curve.

In one assay the target is T1, AurA (Homo sapiens, UniProt O14965).
T1 sequence (O14965 1-403): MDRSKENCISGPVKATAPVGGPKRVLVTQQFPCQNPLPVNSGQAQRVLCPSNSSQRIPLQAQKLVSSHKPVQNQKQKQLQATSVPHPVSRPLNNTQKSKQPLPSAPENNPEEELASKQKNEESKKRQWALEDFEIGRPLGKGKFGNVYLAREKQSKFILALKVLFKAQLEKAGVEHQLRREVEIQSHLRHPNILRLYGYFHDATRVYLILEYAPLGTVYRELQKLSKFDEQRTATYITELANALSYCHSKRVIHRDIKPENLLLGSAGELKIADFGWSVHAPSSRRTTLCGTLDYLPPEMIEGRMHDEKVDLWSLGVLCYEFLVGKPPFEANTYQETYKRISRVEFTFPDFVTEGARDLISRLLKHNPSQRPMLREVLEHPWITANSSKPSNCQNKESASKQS
In words: biochemical.

The target in another assay is T2, BMX (Homo sapiens, UniProt P51813).
T2 sequence (P51813 1-675): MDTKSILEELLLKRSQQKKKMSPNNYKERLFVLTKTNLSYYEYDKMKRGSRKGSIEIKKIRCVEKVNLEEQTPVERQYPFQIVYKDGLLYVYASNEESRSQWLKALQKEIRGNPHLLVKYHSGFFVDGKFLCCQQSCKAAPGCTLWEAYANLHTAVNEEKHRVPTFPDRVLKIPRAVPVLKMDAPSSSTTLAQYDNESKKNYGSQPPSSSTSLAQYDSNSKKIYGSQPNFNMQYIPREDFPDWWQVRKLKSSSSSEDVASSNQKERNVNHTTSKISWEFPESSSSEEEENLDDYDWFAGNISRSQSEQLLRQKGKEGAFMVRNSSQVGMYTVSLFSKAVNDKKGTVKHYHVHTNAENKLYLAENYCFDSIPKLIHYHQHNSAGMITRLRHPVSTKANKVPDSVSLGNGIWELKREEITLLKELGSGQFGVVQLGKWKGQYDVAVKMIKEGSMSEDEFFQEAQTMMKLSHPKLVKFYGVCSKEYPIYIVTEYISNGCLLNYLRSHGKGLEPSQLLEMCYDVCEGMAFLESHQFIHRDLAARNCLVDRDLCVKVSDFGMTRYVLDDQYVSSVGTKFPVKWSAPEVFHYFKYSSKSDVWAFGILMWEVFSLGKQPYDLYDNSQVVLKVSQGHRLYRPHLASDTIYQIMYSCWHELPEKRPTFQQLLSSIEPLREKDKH
Put plainly: biochemical.

In a further assay the target is DAPK3 (Homo sapiens, UniProt O43293). Put plainly: biochemical.
DAPK3, sequence (O43293 whole entry): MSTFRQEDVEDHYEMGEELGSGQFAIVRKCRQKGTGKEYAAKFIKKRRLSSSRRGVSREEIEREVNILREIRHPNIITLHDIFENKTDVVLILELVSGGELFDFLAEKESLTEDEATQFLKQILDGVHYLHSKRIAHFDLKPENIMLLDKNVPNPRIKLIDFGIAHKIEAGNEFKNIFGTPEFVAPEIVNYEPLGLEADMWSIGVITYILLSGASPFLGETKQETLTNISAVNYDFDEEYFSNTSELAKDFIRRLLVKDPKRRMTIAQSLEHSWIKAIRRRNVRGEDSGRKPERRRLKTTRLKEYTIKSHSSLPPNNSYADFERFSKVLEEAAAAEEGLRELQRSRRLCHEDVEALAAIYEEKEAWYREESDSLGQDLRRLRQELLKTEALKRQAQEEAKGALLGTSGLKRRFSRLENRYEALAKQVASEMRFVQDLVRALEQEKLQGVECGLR
In another assay the target is T3, DRAK1 (Homo sapiens, UniProt Q9UEE5).
T3 sequence (Q9UEE5 1-414): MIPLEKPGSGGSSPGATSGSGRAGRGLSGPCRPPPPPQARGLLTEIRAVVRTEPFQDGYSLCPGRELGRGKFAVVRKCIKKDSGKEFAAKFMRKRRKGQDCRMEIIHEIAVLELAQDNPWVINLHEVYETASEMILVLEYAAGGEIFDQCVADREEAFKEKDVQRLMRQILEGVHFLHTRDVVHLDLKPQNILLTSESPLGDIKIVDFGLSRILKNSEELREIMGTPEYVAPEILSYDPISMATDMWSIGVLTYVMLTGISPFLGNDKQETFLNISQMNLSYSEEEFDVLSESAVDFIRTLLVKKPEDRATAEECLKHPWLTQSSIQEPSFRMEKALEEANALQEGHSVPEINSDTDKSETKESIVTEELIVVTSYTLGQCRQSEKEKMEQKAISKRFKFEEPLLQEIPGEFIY
In words: biochemical.

The target of the next assay is EpHA5 (Homo sapiens, UniProt P54756). Put plainly: biochemical.
EpHA5, sequence (P54756 whole entry): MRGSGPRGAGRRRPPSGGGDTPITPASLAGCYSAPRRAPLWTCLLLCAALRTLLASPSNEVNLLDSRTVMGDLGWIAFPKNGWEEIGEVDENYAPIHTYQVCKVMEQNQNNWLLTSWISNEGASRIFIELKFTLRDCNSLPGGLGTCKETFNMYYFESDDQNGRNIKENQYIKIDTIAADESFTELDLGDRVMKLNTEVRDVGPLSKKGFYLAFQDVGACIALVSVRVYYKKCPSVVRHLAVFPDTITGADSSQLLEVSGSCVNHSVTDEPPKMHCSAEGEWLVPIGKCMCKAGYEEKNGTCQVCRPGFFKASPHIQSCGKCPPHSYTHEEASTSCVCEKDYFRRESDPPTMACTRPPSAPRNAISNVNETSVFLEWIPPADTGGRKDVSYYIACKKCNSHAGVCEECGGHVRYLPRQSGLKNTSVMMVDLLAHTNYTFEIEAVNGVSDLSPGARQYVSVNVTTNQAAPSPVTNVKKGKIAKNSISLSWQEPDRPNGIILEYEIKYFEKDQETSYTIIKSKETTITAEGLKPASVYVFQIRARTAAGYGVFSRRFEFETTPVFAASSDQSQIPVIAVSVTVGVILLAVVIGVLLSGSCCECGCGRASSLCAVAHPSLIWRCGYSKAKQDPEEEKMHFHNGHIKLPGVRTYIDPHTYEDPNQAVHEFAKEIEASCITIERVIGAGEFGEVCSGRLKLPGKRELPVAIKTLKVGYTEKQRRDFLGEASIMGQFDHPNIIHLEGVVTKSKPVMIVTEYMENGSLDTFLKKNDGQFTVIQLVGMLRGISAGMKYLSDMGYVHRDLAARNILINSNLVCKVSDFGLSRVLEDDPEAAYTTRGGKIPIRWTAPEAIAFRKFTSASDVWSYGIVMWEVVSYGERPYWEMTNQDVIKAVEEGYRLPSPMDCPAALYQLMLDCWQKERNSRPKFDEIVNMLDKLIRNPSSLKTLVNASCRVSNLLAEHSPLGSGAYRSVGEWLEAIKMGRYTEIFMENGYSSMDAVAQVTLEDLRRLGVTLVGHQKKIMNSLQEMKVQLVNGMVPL
The target in another assay is Erk2 (Homo sapiens, UniProt P28482). Put plainly: biochemical.
Erk2, sequence (P28482 whole entry): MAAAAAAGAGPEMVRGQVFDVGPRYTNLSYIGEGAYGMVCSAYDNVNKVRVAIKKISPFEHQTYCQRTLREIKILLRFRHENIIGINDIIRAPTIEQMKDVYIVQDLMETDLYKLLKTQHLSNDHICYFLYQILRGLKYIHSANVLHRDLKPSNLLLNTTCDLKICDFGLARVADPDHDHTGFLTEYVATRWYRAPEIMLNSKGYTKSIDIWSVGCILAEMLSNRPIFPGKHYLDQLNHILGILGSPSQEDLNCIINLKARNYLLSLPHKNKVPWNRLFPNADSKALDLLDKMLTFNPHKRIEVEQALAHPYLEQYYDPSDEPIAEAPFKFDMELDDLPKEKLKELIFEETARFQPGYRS
Another assay has as its target MELK (Homo sapiens, UniProt Q14680). Put plainly: biochemical.
A further assay concerns the target MSK1b (Homo sapiens, UniProt O75582). Put plainly: biochemical.
In the next assay the target is T4, MST2 (Homo sapiens, UniProt Q13188).
T4 sequence (Q13188 1-491): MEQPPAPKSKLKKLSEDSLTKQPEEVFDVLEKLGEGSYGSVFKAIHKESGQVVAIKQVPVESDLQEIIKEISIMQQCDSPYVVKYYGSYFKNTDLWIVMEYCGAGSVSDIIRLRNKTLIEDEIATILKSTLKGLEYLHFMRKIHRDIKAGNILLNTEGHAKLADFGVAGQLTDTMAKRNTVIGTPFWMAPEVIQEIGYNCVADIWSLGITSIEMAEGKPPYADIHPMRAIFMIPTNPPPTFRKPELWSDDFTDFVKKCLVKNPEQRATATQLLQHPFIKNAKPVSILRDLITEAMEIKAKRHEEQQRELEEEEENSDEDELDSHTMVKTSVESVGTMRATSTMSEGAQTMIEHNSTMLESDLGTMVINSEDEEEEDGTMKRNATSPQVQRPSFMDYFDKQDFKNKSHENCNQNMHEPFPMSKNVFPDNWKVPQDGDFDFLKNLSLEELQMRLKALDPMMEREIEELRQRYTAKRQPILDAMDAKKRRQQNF
In words: biochemical.

The next assay concerns the target MST4 (Homo sapiens, UniProt Q9P289). In words: biochemical.
The next assay deals with EpHA3 (Homo sapiens, UniProt P29320). In words: NanoBRET target engagement. The format is cell-based. A general note: Bioluminescence resonance energy transfer reports proximity on the nanometre scale.
The next assay addresses EpHB3 (Homo sapiens, UniProt P54753). In words: NanoBRET target engagement. The format is cell-based.

Read-outs that look alike come from different tables or passages of the source. Where only a bound is given, the exact number is not on record here.

MELK, sequence (Q14680 whole entry): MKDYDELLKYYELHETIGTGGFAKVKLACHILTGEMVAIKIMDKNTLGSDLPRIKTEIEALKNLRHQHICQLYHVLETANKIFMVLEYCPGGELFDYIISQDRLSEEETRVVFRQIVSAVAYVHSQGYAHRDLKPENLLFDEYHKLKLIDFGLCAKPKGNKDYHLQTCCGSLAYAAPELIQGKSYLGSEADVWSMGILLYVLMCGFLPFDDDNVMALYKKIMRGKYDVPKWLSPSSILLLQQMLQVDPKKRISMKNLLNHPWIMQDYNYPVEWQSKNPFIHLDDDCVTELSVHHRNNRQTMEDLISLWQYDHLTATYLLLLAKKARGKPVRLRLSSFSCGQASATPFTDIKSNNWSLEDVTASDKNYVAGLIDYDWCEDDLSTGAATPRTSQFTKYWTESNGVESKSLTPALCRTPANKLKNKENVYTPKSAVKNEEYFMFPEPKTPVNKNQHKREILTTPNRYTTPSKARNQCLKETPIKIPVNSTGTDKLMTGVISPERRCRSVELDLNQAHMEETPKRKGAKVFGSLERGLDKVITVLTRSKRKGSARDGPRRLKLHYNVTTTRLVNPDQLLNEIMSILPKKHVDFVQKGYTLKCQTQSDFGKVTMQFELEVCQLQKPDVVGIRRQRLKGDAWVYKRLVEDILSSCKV
MSK1b, sequence (O75582 whole entry): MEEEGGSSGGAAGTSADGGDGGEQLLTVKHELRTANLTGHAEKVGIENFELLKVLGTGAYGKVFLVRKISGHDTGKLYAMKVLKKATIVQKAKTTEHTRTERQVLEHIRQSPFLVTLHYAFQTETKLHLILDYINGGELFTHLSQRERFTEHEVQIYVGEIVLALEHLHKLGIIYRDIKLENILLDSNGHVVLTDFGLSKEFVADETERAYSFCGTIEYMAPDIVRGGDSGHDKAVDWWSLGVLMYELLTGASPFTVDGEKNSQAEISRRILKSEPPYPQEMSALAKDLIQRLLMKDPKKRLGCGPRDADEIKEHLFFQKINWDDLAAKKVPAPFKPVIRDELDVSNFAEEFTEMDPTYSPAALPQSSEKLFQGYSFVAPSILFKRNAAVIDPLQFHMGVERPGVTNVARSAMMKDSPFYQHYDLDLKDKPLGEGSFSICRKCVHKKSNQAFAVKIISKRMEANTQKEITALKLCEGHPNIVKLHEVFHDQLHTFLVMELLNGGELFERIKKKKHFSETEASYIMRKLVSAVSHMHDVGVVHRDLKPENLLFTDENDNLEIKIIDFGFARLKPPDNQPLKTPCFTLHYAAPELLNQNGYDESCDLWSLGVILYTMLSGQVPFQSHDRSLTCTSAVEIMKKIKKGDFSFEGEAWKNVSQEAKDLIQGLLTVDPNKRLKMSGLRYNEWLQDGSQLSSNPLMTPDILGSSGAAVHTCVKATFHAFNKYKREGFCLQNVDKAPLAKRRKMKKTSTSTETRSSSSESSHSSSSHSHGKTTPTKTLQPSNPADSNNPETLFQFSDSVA
MST4, sequence (Q9P289 whole entry): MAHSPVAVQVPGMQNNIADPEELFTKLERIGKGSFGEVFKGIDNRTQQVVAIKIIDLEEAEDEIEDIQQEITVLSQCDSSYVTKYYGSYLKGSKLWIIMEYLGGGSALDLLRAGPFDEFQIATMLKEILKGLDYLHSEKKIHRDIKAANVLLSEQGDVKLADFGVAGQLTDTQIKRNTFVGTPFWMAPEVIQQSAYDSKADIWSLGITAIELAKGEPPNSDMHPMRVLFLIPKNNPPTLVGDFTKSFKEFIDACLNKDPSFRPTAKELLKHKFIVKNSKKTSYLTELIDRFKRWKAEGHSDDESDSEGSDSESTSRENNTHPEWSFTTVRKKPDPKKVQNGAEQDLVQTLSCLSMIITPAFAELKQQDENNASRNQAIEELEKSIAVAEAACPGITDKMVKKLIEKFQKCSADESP
EpHB3, sequence (P54753 34-998): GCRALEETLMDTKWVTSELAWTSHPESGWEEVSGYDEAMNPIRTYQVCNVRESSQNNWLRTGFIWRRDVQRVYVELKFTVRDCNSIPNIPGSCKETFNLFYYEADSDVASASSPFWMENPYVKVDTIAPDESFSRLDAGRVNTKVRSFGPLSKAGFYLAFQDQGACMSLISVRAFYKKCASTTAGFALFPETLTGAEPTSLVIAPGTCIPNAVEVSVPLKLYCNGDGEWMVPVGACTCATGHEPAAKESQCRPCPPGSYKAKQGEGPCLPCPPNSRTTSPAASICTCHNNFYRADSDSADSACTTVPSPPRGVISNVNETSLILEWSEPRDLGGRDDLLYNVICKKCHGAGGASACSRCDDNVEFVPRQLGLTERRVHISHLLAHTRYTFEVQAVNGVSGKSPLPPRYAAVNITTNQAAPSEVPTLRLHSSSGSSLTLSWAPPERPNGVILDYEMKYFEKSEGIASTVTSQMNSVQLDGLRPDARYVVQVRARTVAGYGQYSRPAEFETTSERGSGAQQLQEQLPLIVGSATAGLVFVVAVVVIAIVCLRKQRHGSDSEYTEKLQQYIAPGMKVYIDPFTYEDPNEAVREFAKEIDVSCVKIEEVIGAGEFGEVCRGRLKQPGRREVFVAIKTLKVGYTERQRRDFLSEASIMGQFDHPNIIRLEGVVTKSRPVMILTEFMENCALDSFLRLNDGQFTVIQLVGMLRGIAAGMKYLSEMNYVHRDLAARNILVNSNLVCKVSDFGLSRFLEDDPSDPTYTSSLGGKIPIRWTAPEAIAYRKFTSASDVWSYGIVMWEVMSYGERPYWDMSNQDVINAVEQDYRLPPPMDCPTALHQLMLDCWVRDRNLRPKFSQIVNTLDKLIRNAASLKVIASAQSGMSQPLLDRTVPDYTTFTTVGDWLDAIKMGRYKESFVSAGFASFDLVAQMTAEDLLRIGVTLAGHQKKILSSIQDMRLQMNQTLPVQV

`CNc1ncc2cc(-c3ccc(-c4cccc(C)n4)cc3Cl)c(=O)n(CC3OCC(N)CO3)c2n1` (stereo not shown) [compound 2, G-5555]: the “dTm G-5555 (2)” value on AurA (10 µM, binder) is 8.5 °C; on BMX (10 µM, binder) it was 1.3 °C; at DAPK3 (10 µM, binder) it was 0.5 °C; on DRAK1 (10 µM, binder), -0.7 °C; on EpHA5 (10 µM, binder), 2.7 °C; on Erk2 (10 µM, binder), 1.4 °C. Moreover, the “dTm G-5555 (2)” value was 8.4 °C at MELK (10 µM, binder) and 2.0 °C at MSK1b (10 µM, binder). The “∆Tm G-5555 (2)” value at MST2 (10 µM, binder) was determined as 6.9 degC; at MST4 (10 µM, binder), 6.1 degC.
For the compound `CNc1ncc2cc(-c3ccccc3Cl)c(=O)n(CCCCN)c2n1` [compound 4, 8-(4-Aminobutyl)-6-(2-chlorophenyl)-2-(methylamino)pyrido[2,3-d]pyrimidin-7(8H)-one], the IC50 against EpHA3 is 313 ± 121 nM; against EpHB3, over 1000 nM. Besides, the ΔTm at 10 µM worked out at 3.3 °C on BMX (read-out: dTm MR21 (4)); 0.1 °C at DRAK1 (read-out: dTm MR21 (4)); 1 °C on Erk2 (read-out: dTm MR21 (4)); 5.7 °C at MELK (read-out: dTm MR21 (4)); 2.1 °C on MSK1b (read-out: dTm MR21 (4)); 1 °C at MST2 (read-out: ∆Tm MR21 (4)).
`CNc1ncc2cc(-c3cc(Cl)ccc3Cl)c(=O)n(CCCCN)c2n1` [compound 8, 8-(4-Aminobutyl)-6-(2,5-dichlorophenyl)-2-(methylamino)pyrido[2,3-d]pyrimidin-7(8H)-one]: the half-maximal inhibitory concentration (IC50) against EpHA3 and on EpHB3 was over 1000 nM throughout.
In the case of `CNc1ncc2cc(-c3cc(Br)ccc3Cl)c(=O)n(C[C@H]3OC[C@H](N)CO3)c2n1` [compound 7, 8-(((2r,5r)-5-Amino-1,3-dioxan-2-yl)methyl)-6-(5-bromo-2-chlorophenyl)-2-(methylamino)pyrido[2,3-d]pyrimidin-7(8H)-one], the ΔTm at 10 µM was 1.4 °C on AurA (read-out: dTm 7); 3.2 °C on BMX (read-out: dTm 7); -0.4 °C at DAPK3 (read-out: dTm 7); 0.6 °C at DRAK1 (read-out: dTm 7); 3.2 °C on EpHA5 (read-out: dTm 7); 0 °C at Erk2 (read-out: dTm 7). Further, the ΔTm at 10 µM at MELK (read-out: dTm 7) stood at 3.6 °C; on MSK1b (read-out: dTm 7), 1.1 °C.
As for `CNc1ncc2cc(-c3cc(Br)ccc3Cl)c(=O)n(CCCCN)c2n1` [compound 6, 8-(4-Aminobutyl)-6-(5-bromo-2-chlorophenyl)-2-(methylamino)pyrido[2,3-d]pyrimidin-7(8H)-one], the ΔTm at 10 µM is 1.9 °C on AurA (read-out: dTm 6); 3.8 °C at BMX (read-out: dTm 6); -0.2 °C on DAPK3 (read-out: dTm 6); -0.1 °C on DRAK1 (read-out: dTm 6); 4.5 °C at EpHA5 (read-out: dTm 6); 0 °C at Erk2 (read-out: dTm 6). For the same compound, the ΔTm at 10 µM at MSK1b (read-out: dTm 6) is 0.3 °C.
Consider `CNc1ncc2cc(-c3cc(F)ccc3F)c(=O)n(CCCCN)c2n1` [compound 5, 8-(4-Aminobutyl)-6-(2,5-difluorophenyl)-2-(methylamino)pyrido[2,3-d]pyrimidin-7(8H)-one], for which the ΔTm at 10 µM is -3 °C on AurA (read-out: dTm MR22 (5)); 1.9 °C on BMX (read-out: dTm MR22 (5)); 0.5 °C on DAPK3 (read-out: dTm MR22 (5)); -0.7 °C at DRAK1 (read-out: dTm MR22 (5)); -3.7 °C on Erk2 (read-out: dTm MR22 (5)); 3.2 °C at MELK (read-out: dTm MR22 (5)). In addition, the figures for the ΔTm at 10 µM on MSK1b (read-out: dTm MR22 (5)) and at MST4 (read-out: ∆Tm MR22 (5)) were 1.5 °C and 1.4 °C, respectively.
